According to a melting point compilation (Tetko et al.; mined from patent text by program, amines drawn as free bases though some values may be those of a salt):

Row | Structure (SMILES) | melting point
1 | CC1(C)CC2(CCNCC2)C(=O)O1 | > 280 °C
2 | CCCCc1nc2c(N)nc3cccnc3c2n1CCOc1ccccc1 | 159 °C
3 | Ic1cnc2c(c1)NCCN2 | 126 to 128 °C
4 | Cc1cccc(C)c1N(CC(C)OS(C)(=O)=O)S(C)(=O)=O (stereo not given) | 111 to 114 °C
5 | O=C(c1c[nH]c(=O)[nH]1)c1ccco1 | 318 to 321 °C
6 | Oc1ccc2cc(-c3ccc(-c4ccccc4)[nH]3)ccc2c1 | 210 °C
7 | CCCCCCCCC1CNc2cc(C(=O)OC)ccc21 (racemic) | 57 to 60 °C
8 | CCOC(=O)c1c(OC)cc(C(F)(F)F)nc1C(F)(F)F | 58.5 to 59.5 °C
9 | O=C(Nc1ccc(CN2C(=O)[C@H]3CCC[C@H]3N(C(=O)CN3C(=O)c4ccccc4C3=O)c3ccccc32)cc1)c1ccc(F)cc1 (relative stereo) | 244 to 246 °C
10 | CNC(=O)CCc1ccc(F)cc1F | 90 to 91 °C
11 | CCCc1cc(I)ccc1O | 54 to 56 °C
12 | C1CCN(CCN2CCNCC2)CC1 | 60 to 62 °C
13 | O=C1Nc2cccnc2N(C(=O)NCCN2CCCC(CN3CCCCCC3)C2)c2ccccc21 (stereo not given) | 135 to 137 °C
14 | CC(=O)Oc1cc2ccccc2cc1C(N)=O | 201 to 202 °C
15 | CCCCCCc1ccc(-c2ccc(-c3ccc(CCCCC)cc3)c(F)c2)s1 | 44 °C
16 | C[C@H](CNC(=O)COc1cc(C(F)(F)F)c2c(-c3ccccc3)nn(C)c2n1)c1ccccc1 | 91 to 93 °C
17 | CCOC(=O)c1cc2cc([N+](=O)[O-])ccc2s1 | 163 °C
18 | Cc1ccc(NC(=O)N(C)C)cc1 | 154 to 157 °C
19 | O=C1CC(CO)N1C(c1ccccc1)c1ccccc1 (stereo not given) | 101 to 102 °C

Row | Structure (SMILES) | melting point
20 | O=c1ccccn1C1=CC(CF)(CF)Oc2ccc(C(F)(F)C(F)(F)C(F)(F)F)cc21 | 101 to 104 °C
21 | NCC(=O)Nc1sccc1C(=O)c1ccccc1Cl | 156 to 158 °C
22 | O=C(COc1ccccc1)Nc1ccccc1C(=O)O | 201 to 203 °C
23 | O=C(c1c[nH]c2cc(C(F)(F)F)ccc12)C(F)(F)F | 250 to 251 °C
24 | CNC(C)Cn1nc(Cl)c2cc3ccc(OC)cc3nc21 (stereo not given) | 98 to 100 °C
25 | NCc1ccc2ccnc(N)c2c1 | 114 to 117 °C
26 | Brc1ccc(N=NSc2ccccc2)c2ccccc12 | 57 to 58 °C
27 | CCOC(=O)/C=C/C=C(c1ccc(Cl)cc1)c1ccc(Cl)cc1 | 98 to 100 °C
28 | CCCCc1ncc(CCC(=O)O)n1Cc1ccccc1Cl | 164 °C
29 | Cc1c(C#N)c(-c2ccc(C#N)cc2)c(C)n1Cc1cnc(Cl)c(CO)c1 | 147 to 148 °C
30 | Cc1ccccc1-c1ccc(C(=O)N2Cc3ccc(C(=O)NCc4cccnc4)n3Cc3ccccc32)cc1C | 147 to 149 °C
31 | CCCCNC(=O)Oc1ccc(Oc2ccc(C(C)(C)C)cc2)cc1 | 78 to 80 °C
32 | NCc1c([N+](=O)[O-])ccc(N2CCCC2)c1Cl | 71 to 73 °C
33 | O=c1[nH]c(Nc2ccccc2)nc2c1ncn2CCO | 338 to 339 °C
34 | CC(C)(C)C(=O)C(CS(=O)(=O)c1ccccc1)n1cncn1 (stereo not given) | 135 °C
35 | CCOC(=O)c1cnc2c(c(C)nc3cc(C)nn32)c1N1CCCCC1 | 161 to 163 °C
36 | CCOC(=O)CC(=O)Nc1ccc(S)cc1 | 69 °C
37 | Oc1cccc2c1CC1CNCC2C1 (stereo not given) | 106 to 108 °C
38 | O=c1c(CCCc2nc3ccccc3s2)cc2cccnc2n1-c1cccc([N+](=O)[O-])c1 | 185 to 186 °C

Row | Structure (SMILES) | melting point
39 | OC[C@H]1CC[C@H](c2ccc(Cl)cc2)CC1 | 60 to 63 °C
40 | CCCCC1OC(=O)c2cc(NC(C)=O)ccc21 (stereo not given) | 138 to 139 °C
41 | Cc1nc(N2CCNC2=O)sc1C(=O)NCc1ccccc1 | 226 to 228 °C
42 | O=C1CCS(=O)(=O)C(CC(=O)c2ccccc2)C1 (stereo not given) | 158 to 159 °C
43 | CS(=O)(=O)N(Cc1cncnc1)c1ccc(F)cc1F | 142 to 145 °C
44 | COC(=O)c1cc(I)c[nH]c1=O | 190 to 192 °C
45 | CON=C(C(=O)O)c1cccc(OCc2ccccc2Cl)c1OCc1ccccc1Cl | 97 to 99 °C
46 | Fc1ccc(-c2cc(Cl)c3ccccc3n2)cc1 | 90 to 93 °C
47 | CC1=C(CC(=O)O)c2cc(F)ccc2C1 | 164 to 166 °C
48 | CC(C)(O)P(=O)(c1ccccc1)c1ccccc1 | 96 to 98 °C
49 | CCC(CC)c1nn(-c2ncc(C(F)(F)F)cn2)cc1CCCOc1c(C)cccc1CC(=O)O | 110 to 111 °C
50 | O=Cc1ccc(COC(=O)Nc2cccc3ccccc23)cc1 | 153 to 154 °C
51 | CCCN(CCCCc1c[nH]c2ccc(F)cc12)C1COc2c(ccc3ncccc23)C1 (stereo not given) | 164 °C
52 | COCN(c1noc(C)c1C)S(=O)(=O)C1(Br)C=CC=CC1 (stereo not given) | 71 to 72 °C
53 | O=C(CSc1c(O)cc(-c2ccccc2)oc1=O)c1ccccc1 | 164 to 166 °C
54 | CC1(C)C(=O)N(CCO)C(=O)N1CN1C(=O)N(CCO)C(=O)C1(C)C | 165 to 166 °C
55 | Cc1ccc(N(c2ccc(C)c(C)c2)c2cccc3ccccc23)cc1C | 125 to 127 °C
56 | COc1ccc(Cn2nc(NC(=O)c3cc(NC(=O)c4cc([N+](=O)[O-])nn4Cc4ccc(OC)cc4)nn3Cc3ccc(OC)cc3)cc2C(=O)O)cc1 | 258 to 260 °C

Other lines, results leading:

Row | melting point | Structure (SMILES)
57 | 122 °C | COc1ccc(S(N)(=O)=O)cc1C(O)CN=[N+]=[N-] (stereo not given)
58 | 207 °C | COc1ccc(C=C(C=O)C(C=O)=Cc2ccc(OC)cc2)cc1
59 | 129 °C | COc1cc(C(=O)CCCN2CCC(OC(=O)c3cc(Cl)c(N)c4cc(C)oc34)CC2)cc(OC)c1OC
60 | 175 to 177 °C | CCCOc1cc(NC(=O)C[C@H]2O[C@H](c3cccc(OC)c3OC)c3cc(Cl)ccc3N(CC(C)(C)CO)C2=O)cc2cc(C(=O)O)oc12
61 | 170 to 172 °C | CCC(C)(C)C(=O)OCc1cccc(C)c1OCCOc1ccc([C@H](N)C(=O)O)cc1
62 | 83 to 85 °C | COc1ccc(CCN2CCN(c3cccccc3=O)CC2)cc1OC
63 | 118 to 120 °C | COc1ccc(S(=O)(=O)Nc2ccc([C@@H](C)C(N)=O)cc2)cc1
64 | 180 to 182 °C | CC(C)c1ccc(N(Cc2cnn(CC(=O)O)c2)C(=O)C2CCCc3c(OCc4ccccc4)cccc32)cc1 (stereo not given)
65 | 179 °C | COC(=O)c1ccc2c(c1)c(=O)n(Cc1ccccc1)c(=O)n2C
66 | 169 to 173 °C | NC(=O)c1cc(C(=O)CN(Cc2ccccc2)Cc2ccccc2)ccc1OCC(O)CO (stereo not given)
67 | 149 °C | CC(=O)Nc1ccc(-c2cc(C(=O)c3ccncc3)sc2N2CCOCC2)cc1
68 | 80 to 83 °C | CCC(CC)(CC(=O)Nc1cccc(SCc2ccc3cccc(F)c3n2)c1)C(=O)O
69 | 91 to 92 °C | CS(=O)(=O)Nc1cccc(OCC#N)c1
70 | 150 to 151 °C | CN(C)C(=O)C(N)=NNc1ccc(Cl)cc1C(=O)c1ccccc1Cl
71 | 171 to 172 °C | COC(=O)c1c(OCc2ccccc2)ccc2c1CC[C@@H](NC(C)=O)[C@@H]2OC(C)=O (relative stereo)
72 | 132 to 135 °C | CCc1nc2ccc3c(c2nc1CC)OC(COS(=O)(=O)c1ccc(C)cc1)CO3 (stereo not given)
73 | 170 to 171 °C | CC(C)Oc1ccc(OCc2ccccc2)cc1-c1nc2cc(C=O)cnc2[nH]1
74 | 159 to 160 °C | Cc1cccc(COc2cccc(OCc3coc(-c4ccc(F)cc4)n3)c2)c1C(=O)O
75 | 150 to 151 °C | CC(=O)OCc1ccc(Sc2ccccc2C(=O)O)c([N+](=O)[O-])c1
76 | 180 to 181 °C | CCOC(=O)c1cc2cccc(NS(=O)(=O)c3ccc(Cl)s3)c2[nH]1
77 | 50 to 56 °C | COc1ccc(NS(=O)(=O)c2ccc(N3CCC(=O)CC3)cc2)cc1OC
78 | 145 °C | COc1cc(C(C)=O)cc(OC)c1OC(C)=O

Row | melting point | Structure (SMILES)
79 | 189 to 191 °C | CN(c1cccc2cc(C3=NCC(CCN4C(=O)CCC4=O)S3)[nH]c12)S(=O)(=O)c1cccs1 (stereo not given)
80 | 151 to 152 °C | O=C1c2ccccc2CSc2ccc(Br)cc21
81 | 206 to 208 °C | COc1ccc2c(c1)C(C#Cc1ccccc1)(C(F)(F)F)NC(=O)N2 (racemic)
82 | 155 to 157 °C | O=C(O)COc1cc(NS(=O)(=O)c2cccs2)c2ccccc2c1O
83 | 147 to 149 °C | CON=C(c1ccccc1)c1ccc2c(c1)NC(=O)CO2
84 | 198 to 199 °C | COC(=O)NNc1cc(C)c(-c2cccc([N+](=O)[O-])c2)nn1
85 | 190 °C | CN1CCN(C(=O)c2ccc(-c3[nH]nc4c3C(=O)c3c(NC(=O)NC5CNCCO5)cccc3-4)s2)CC1 (stereo not given)
86 | 102 to 104 °C | COc1cc2c(c(OC)c1/C=C/c1ccc(CO)cc1)C(C)(C)CCC2(C)C
87 | 36 to 43 °C | CCOC(=O)COc1cc(C=O)ccc1OCc1ccccc1
88 | 230 °C | CC(SC1COC(c2ccc(C(=O)Nc3ccc(C(N)=O)cc3)cc2)OC1)C(O)(Cn1cncn1)c1ccc(F)cc1F (stereo not given)
89 | 90 to 94 °C | CCCCCCCCOc1cccc2c1C(=O)c1cccc(OCCCCCCCC)c1C2=O
90 | 99 to 102 °C | O=C(c1ccc(F)cc1)C1CCN(CC2CCc3onc(-c4ccccc4F)c3C2=O)CC1 (stereo not given)
91 | 108 to 110 °C | CC(=O)N1CCC(c2ccc3c(c2OCc2ccccc2)CCCC3)CC1
92 | 181 to 182 °C | CC(=O)N1CCN(c2ccc(-n3ccnc3)cc2)CC1
93 | 75 to 77 °C | CCCc1c(OCCCOc2ccc(N)cc2)ccc(C(C)=O)c1O
94 | 196 °C | O=C(Nc1ccc(N2CCC(C(C(=O)O)c3ccccc3)CC2)cc1)c1ccccc1-c1ccc(C(F)(F)F)cc1 (stereo not given)
95 | 86 to 87 °C | C=C1C(=O)c2ccccc2OC1c1ccc(Cl)cc1Cl (stereo not given)
96 | 103 °C | CCOC(=O)c1c(Cl)c2cc(C)ccc2n(Cc2ccccc2)c1=O
97 | > 250 °C | O=S(=O)(Nc1ccc(Cl)nc1I)c1ccc2ncccc2c1
98 | 171 to 172 °C | CCC(=S)NC[C@H]1CN(c2ccc(N3CCN(C(=O)COc4ccccc4)CC3)c(F)c2)C(=O)O1
99 | 134 to 136 °C | Cc1cc(-n2nc(C(F)(F)F)cc2-c2ccc(S(C)(=O)=O)cc2)ccc1F
100 | 166 °C | CC(C)(C)OC(=O)CN(C(=O)CN1C(=O)c2ccccc2C1=O)c1ccc2c(c1)OCO2
